The record followed here is paper PMC3492849 (The Febs Journal, 2012).

Sequence of PKD1L3/PKD2L1 (A2A259 whole entry): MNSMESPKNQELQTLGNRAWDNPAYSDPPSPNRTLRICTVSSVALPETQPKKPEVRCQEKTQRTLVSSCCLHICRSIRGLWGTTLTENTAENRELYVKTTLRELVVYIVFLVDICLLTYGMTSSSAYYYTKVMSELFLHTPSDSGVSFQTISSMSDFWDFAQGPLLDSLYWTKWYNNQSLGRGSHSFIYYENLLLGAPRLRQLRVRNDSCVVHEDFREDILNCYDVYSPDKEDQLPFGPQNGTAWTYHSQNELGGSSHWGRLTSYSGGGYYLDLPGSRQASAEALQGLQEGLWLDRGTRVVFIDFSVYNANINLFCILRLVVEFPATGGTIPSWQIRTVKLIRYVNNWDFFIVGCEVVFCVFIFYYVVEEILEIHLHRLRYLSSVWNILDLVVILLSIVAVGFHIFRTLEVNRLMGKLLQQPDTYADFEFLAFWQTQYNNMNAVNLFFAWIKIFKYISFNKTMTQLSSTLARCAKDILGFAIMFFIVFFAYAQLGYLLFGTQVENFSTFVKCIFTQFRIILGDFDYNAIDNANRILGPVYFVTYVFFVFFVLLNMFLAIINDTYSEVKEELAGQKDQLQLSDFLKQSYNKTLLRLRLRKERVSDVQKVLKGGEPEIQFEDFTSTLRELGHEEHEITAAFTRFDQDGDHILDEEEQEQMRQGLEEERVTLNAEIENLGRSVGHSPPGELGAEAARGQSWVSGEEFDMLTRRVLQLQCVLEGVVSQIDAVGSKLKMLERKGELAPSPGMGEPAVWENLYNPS
Sequence of PKD1L3/PKD2L1 (Q2EG98 21-2151): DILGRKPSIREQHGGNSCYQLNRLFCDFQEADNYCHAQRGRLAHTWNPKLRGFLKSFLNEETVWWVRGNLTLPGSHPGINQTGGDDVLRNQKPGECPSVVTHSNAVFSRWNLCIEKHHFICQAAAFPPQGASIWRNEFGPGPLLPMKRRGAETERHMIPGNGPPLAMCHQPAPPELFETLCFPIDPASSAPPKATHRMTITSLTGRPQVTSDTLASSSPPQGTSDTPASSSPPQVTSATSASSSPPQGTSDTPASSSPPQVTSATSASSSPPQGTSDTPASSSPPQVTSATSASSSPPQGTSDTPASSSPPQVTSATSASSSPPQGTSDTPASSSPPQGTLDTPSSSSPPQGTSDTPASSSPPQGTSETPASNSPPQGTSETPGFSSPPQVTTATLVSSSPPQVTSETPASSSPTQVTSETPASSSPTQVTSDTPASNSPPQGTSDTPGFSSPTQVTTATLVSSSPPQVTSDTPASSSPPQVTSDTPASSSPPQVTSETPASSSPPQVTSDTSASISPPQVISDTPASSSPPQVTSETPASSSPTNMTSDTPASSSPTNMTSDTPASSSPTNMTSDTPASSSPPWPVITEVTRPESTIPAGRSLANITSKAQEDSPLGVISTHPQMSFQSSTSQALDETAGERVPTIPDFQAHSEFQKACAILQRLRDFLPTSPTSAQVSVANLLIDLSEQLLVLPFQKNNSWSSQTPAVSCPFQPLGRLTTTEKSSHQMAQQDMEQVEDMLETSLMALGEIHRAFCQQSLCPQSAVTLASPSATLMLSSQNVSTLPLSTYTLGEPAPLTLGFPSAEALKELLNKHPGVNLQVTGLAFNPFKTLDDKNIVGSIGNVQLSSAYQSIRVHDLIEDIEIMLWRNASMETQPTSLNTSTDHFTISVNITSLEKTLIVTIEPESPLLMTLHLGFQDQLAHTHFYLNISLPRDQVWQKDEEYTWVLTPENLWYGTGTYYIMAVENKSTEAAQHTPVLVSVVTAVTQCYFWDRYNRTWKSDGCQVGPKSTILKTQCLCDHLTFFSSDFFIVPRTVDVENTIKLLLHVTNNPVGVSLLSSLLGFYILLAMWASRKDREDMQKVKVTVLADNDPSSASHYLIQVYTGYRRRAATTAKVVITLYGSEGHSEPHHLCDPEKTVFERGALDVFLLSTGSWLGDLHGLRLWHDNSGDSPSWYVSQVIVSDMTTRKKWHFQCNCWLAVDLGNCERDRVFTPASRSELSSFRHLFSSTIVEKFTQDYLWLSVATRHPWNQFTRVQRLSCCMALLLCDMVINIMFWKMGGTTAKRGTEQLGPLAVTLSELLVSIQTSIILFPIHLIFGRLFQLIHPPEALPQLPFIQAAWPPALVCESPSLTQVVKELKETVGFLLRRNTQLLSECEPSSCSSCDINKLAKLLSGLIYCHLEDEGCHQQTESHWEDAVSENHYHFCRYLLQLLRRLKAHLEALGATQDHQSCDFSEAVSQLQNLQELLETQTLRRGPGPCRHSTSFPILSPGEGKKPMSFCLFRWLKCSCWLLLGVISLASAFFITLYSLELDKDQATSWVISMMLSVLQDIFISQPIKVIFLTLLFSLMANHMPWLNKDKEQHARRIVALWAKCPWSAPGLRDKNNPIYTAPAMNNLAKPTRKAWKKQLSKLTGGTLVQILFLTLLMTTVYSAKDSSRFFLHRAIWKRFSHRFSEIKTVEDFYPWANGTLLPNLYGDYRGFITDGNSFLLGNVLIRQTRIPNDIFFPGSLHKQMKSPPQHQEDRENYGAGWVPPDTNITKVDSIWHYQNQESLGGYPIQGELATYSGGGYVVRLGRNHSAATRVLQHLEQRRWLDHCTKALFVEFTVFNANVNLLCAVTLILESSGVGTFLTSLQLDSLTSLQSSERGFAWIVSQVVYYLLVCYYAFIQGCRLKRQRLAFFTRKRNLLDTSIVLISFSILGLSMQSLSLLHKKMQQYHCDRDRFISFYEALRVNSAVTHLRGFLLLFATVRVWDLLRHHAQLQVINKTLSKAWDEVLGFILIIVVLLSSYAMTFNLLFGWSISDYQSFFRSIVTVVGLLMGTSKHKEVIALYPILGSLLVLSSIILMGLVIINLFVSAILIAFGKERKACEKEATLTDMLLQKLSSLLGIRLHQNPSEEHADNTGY

The assay concerns the target PKD1L3/PKD2L1 (Mus musculus, UniProt A2A259+Q2EG98). The assay is described as follows: Fura-2 Ca2+ imaging, neutralization method. The format is cell-based.
The compound `CCCCC[C@H](O)CC(=O)CCc1ccc(O)c(OC)c1` [6-gingerol] yielded an IC50 of 85.9 ± 34.7 µM.

For `COc1ccc(CCCOC(Cn2ccnc2)c2ccc(OC)cc2)cc1` (stereo not shown) [SKF96365], half-maximal inhibition (IC50) was put at 48.1 ± 10.8 µM.

Consider `COc1cc(CNC(=O)CCCC/C=C/C(C)C)ccc1O` [capsaicin], for which half-maximal inhibition (IC50) was put at 32.5 ± 10.2 µM.

Turning to `COc1cc(CNC(=O)CCCCCCC(C)C)ccc1O` [dihydrocapsaicin], the midpoint of inhibition, the IC50, lay at 55 ± 14.2 µM.

Usually IC50 stands for the concentration that gives 50% inhibition.
